Data published in US20110053964A1, “4-AMINOQUINAZOLINE DERIVATIVES AND METHODS OF USE THEREOF” (priority 2006, published 2011).

Tests used:
[1] = Pharmacokinetics in rats, oral dosing; conditions: rat, oral dosing 20 mg/kg, tosylate salt; data not shown
[2] = Pharmacokinetics in rats, intravenous; assay type: in vivo, Sprague-Dawley rats; conditions: rat, single intravenous bolus 2 mg/kg; for half-life compared to lapatinib: tosylate salt (FIGS. 2 and 3)
Description: Rats were anesthetized using pentobarbital (IP 40 mg/kg) prior to administration of compound. […] The rats were administered a single bolus 2 mg/kg dose of compound via jugular cannula, followed by a wash-out with saline. Blood samples (0.25 mL) were taken from the jugular at 5, 15 and 30 minutes and at 1, 2, 4, 6, 9, 12, and 24 hours post-dosing. Blood samples were centrifuged within 15 minutes of removal from the animal, centrifuged, and the plasma fraction removed and stored at −20° C. until analysis. Samples were analyzed by LC-MS.

half life compared to lapatinib [1] | half-life ([2]; Sprague-Dawley, tosylate salt, plasma) [min] | Compound | half-life compared to lapatinib [2]
longer half lives than lapatinib |  | Cc1ccc(S(=O)(=O)O)cc1.Cc1ccc(S(=O)(=O)O)cc1.[2H]C([2H])(CS(C)(=O)=O)NC([2H])([2H])c1ccc(-c2ccc3ncnc(Nc4ccc(OCc5cccc(F)c5)c(Cl)c4)c3c2)o1 [Compound 101, [3-Chloro-4-(3-fluorobenzyloxy)phenyl]-(6-{5-[(2-methanesulfonyl-1,1-d2-ethylamino)-d2-methyl]-furan-2-yl}-quinazolin-4-yl)amine di-tosylate] | significantly longer half-lives than lapatinib
longer half lives than lapatinib |  | Cc1ccc(S(=O)(=O)O)cc1.Cc1ccc(S(=O)(=O)O)cc1.[2H]C([2H])(NC([2H])([2H])C([2H])([2H])S(=O)(=O)C([2H])([2H])[2H])c1ccc(-c2ccc3ncnc(Nc4ccc(OCc5cccc(F)c5)c(Cl)c4)c3c2)o1 [Compound 102, [3-Chloro-4-(3-fluoro-benzyloxy)-phenyl]-(6-{5-[(2-d3-methanesulfonyl-1,1,2,2-4-ethylamino)-d2-methyl]-furan-2-yl}-quinazolin-4-yl)amine di-tosylate] | significantly longer half-lives than lapatinib
 | 60 ± 3 | CS(=O)(=O)CCNCc1ccc(-c2ccc3ncnc(Nc4ccc(OCc5cccc(F)c5)c(Cl)c4)c3c2)o1.Cc1ccc(S(=O)(=O)O)cc1 [Lapatinib, [3-Chloro-4-(3-fluorobenzyloxy)phenyl](6-{5-[(2-methanesulfonylethylamino)-methyl]furan-2-yl}-quinazolin-4-yl)amine 4-toluenesulfonate salt, reference compound] | 
